Experimental data: ChEMBL document CHEMBL1155006, “Anti-retroviral and cytostatic activity of 2',3'-dideoxyribonucleoside 3'-disulfides” (Bioorg Med Chem, 2008)

Assays:
[1] = test system: Human immunodeficiency virus 1; experiment: Antiviral activity against HIV1 in human MT4 cells; type: functional, organism-based; conditions: Human immunodeficiency virus 1, MT4
[2] = test system: Human immunodeficiency virus 2; experiment: Antiviral activity against HIV2 ROD in CEM/0 cells assessed as inhibition of virus-induced cytopathogenicity; type: functional, organism-based; conditions: Human immunodeficiency virus 2, ROD, CCRF-CEM
[3] = test system: Human immunodeficiency virus 1; experiment: Antiviral activity against HIV1 3B in CEM/0 cells assessed as inhibition of virus-induced cytopathogenicity; type: functional, organism-based; conditions: Human immunodeficiency virus 1, 3B, CCRF-CEM
[4] = Cytotoxicity against human CEM/0 cells; type: cell-based, CCRF-CEM
[5] = Chemical stability assessed as half life in presence of dithiothreitol; type: physicochemical
[6] = Chemical stability assessed as half life at pH 7.2 in methanol-water mixture; type: physicochemical
[7] = Cytotoxicity against human Molt4/C8; type: functional, cell-based; conditions: MOLT-4
[8] = test system: Human immunodeficiency virus 2; experiment: Antiviral activity against HIV2 ROD in TK1 deficient human CEM cells assessed as inhibition of virus-induced cytopathogenicity; type: functional, organism-based; conditions: Human immunodeficiency virus 2, ROD, CCRF-CEM
[9] = molecular target: T1, Thymidine kinase, cytosolic (Homo sapiens, UniProt P04183); experiment: Inhibition of recombinant TK1-mediated phosphorylation of [CH3-3H]deoxythymidine
T1 sequence (P04183 whole entry): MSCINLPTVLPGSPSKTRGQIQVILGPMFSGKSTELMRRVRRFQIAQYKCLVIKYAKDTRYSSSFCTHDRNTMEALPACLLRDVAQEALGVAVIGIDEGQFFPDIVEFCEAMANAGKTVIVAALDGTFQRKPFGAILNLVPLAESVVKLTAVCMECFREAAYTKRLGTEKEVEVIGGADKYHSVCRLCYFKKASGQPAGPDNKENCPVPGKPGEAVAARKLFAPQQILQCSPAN

[10] = test system: Moloney murine sarcoma virus; experiment: Inhibition of murine sarcoma virus-induced transformation of mouse embryo fibroblast C3H/3T3 cells after 6 days; conditions: C3H/3T3, 144 h
[11] = molecular target: T1, Thymidine kinase, cytosolic; experiment: Inhibition of recombinant TK1-mediated phosphorylation of [CH3-3H]deoxythymidine in presence of dithiothreitol
[12] = Cytotoxicity against human MT4 cells; type: cell-based
[13] = test system: Human immunodeficiency virus 1; experiment: Antiviral activity against HIV1 in CEM cells assessed as reduction of viral replication at 5 to 10 uM; type: functional, CCRF-CEM; set-up: scale not given: the % may be the effect or the level left

| EC50 [1] [µM] | EC50 [2] [µM] | EC50 [3] [µM] | half-life [5] [min] | half-life [6] [min] | EC50 [8] [µM] | IC50 [9] [µM] | IC50 [11] [µM] | Structure (SMILES) | CC50 [4] [µM] | IC50 [7] [µM] | EC50 [10] [µM] | CC50 [12] [µM] | Activity [13] [%] |
| --- | --- | --- | --- | --- | --- | --- | --- | --- | --- | --- | --- | --- | --- |
| 20 | – | – | – | – | – | – | – | Nc1ccn(C2C[C@H](S)[C@@H](CO)O2)c(=O)n1 (single isomer, unassigned) | – | – | – | – | – |
| – | > 250 | > 250 | – | – | – | – | – | O=c1nc(O)ccn1[C@H]1C[C@H](SS[C@H]2C[C@H](n3ccc(O)nc3=O)O[C@@H]2CO)[C@@H](CO)O1 | ≥ 250 | – | – | – | – |
| – | 4.5 | 20 | < 480 | < 5 | > 10 | – | – | CCCCCCCCSS[C@H]1C[C@H](n2cc(C)c(=O)[nH]c2=O)O[C@@H]1CO | 21 | 26 | – | – | – |
| 16 | – | – | – | – | – | – | – | Cc1cn([C@H]2C[C@H](SS[C@H]3C[C@H](n4cc(C)c(O)nc4=O)O[C@@H]3CO)[C@@H](CO)O2)c(=O)nc1O | – | – | – | 34 | – |
| – | > 10 | 10 | < 10 | < 5 | > 10 | – | – | Cc1cn([C@H]2C[C@H](SSc3ccccc3[N+](=O)[O-])[C@@H](CO)O2)c(=O)[nH]c1=O | 18.5 | 31 | 1.1 | – | – |
| – | 65 | 73 | – | – | – | – | – | Nc1ccn([C@H]2C[C@H](SS[C@H]3C[C@H](n4ccc(N)nc4=O)O[C@@H]3CO)[C@@H](CO)O2)c(=O)n1 | 216 | – | – | – | – |
| – | > 10 | 8 | < 480 | < 5 | > 10 | – | – | CCCCSS[C@H]1C[C@H](n2cc(C)c(=O)[nH]c2=O)O[C@@H]1CO | 23.3 | 28 | 1 | – | – |
| – | 15 | 15 | < 480 | < 5 | > 50 | – | – | Cc1cn([C@H]2C[C@H](SSCCCCCCO)[C@@H](CO)O2)c(=O)[nH]c1=O | 52 | 42 | – | – | – |
| – | 12 | 12 | < 480 | < 5 | > 50 | 73 | 333 | CSS[C@H]1C[C@H](n2cc(C)c(=O)[nH]c2=O)O[C@@H]1CO | 102 | 66 | 8.3 | – | 50 |

Further lines, the compound ahead of its results:

| Structure (SMILES) | EC50 [1] [µM] | EC50 [2] [µM] | EC50 [3] [µM] | half-life [5] [min] | half-life [6] [min] | EC50 [8] [µM] | IC50 [9] [µM] | IC50 [11] [µM] | CC50 [4] [µM] | IC50 [7] [µM] | EC50 [10] [µM] | CC50 [12] [µM] | Activity [13] [%] |
| --- | --- | --- | --- | --- | --- | --- | --- | --- | --- | --- | --- | --- | --- |
| Cc1cn([C@H]2C[C@H](SSC(Cl)(Cl)Cl)[C@@H](CO)O2)c(=O)[nH]c1=O | – | 17.5 | 20 | < 90 | < 5 | 22.5 | 13 | 365 | 103 | 55 | > 20 | – | – |
| Nc1ncnc2c1ncn2CCOCP(=O)(O)O [ADEFOVIR] | – | – | – | – | – | – | – | – | – | – | 0.53 | – | – |
| CSS[C@H]1C[C@H](n2ccc(=O)[nH]c2=O)O[C@@H]1CO | – | ≥ 50 | > 50 | – | – | – | – | – | 170 | – | – | – | – |
| Cc1cn([C@H]2C[C@H](SSc3ccc([N+](=O)[O-])cc3)[C@@H](CO)O2)c(=O)[nH]c1=O | – | 7.3 | 8 | < 10 | < 5 | ≥ 10 | – | – | 23 | 29 | 0.89 | – | – |
| C[C@H](Cn1cnc2c(N)ncnc21)OCP(=O)(O)O [TENOFOVIR ANHYDROUS] | – | – | 5.5 | – | – | – | – | – | – | – | 0.23 | – | – |
| CCCCCCSS[C@H]1C[C@H](n2cc(C)c(=O)[nH]c2=O)O[C@@H]1CO | – | 6.5 | 20 | < 480 | < 5 | > 10 | – | – | 39 | 27 | – | – | – |
| CSS[C@H]1C[C@H](n2ccc(N)nc2=O)O[C@@H]1CO | – | 14 | 10 | – | < 5 | 45 | – | – | 111 | 149 | 48 | – | – |
| O=c1[nH]c(=O)n([C@H]2C[C@H](SS[C@H]3C[C@H](n4cc(Br)c(=O)[nH]c4=O)O[C@@H]3CO)[C@@H](CO)O2)cc1Br | – | ≥ 250 | 127 | – | – | – | – | – | > 250 | – | – | – | – |
| C=CCSS[C@H]1C[C@H](n2cc(C)c(=O)[nH]c2=O)O[C@@H]1CO | – | 15 | 12.5 | < 480 | < 5 | > 50 | – | – | 53 | 34 | 2.2 | – | – |
| Cc1cn([C@H]2C[C@H](SSCCO)[C@@H](CO)O2)c(=O)[nH]c1=O | – | 14 | 13.5 | < 480 | < 5 | > 50 | 18 | 405 | 347 | 128 | 5.9 | – | – |
| CSS[C@H]1C[C@H](n2cc(Br)c(=O)[nH]c2=O)O[C@@H]1CO | – | ≥ 50 | ≥ 50 | – | – | – | – | – | 103 | – | – | – | – |
| Cc1cn([C@H]2C[C@H](SSCCN)[C@@H](CO)O2)c(=O)[nH]c1=O | – | 27.5 | 20 | < 480 | < 5 | 150 | 10 | 418 | 437 | 163 | 63 | – | – |
